Source: patent publication US4426519A, “7-(2-Amino-4-thiazolyl)-acetamido cephalosporanic acids” (Roussel Uclaf, priority 1979, dated 1984)
≈ marks a conversion by molar mass, not a printed value. Counter-ions that a name gives are not always drawn. Like-named read-outs stand apart in the source and are kept apart here.

Assays:
Assay in all cases: MIC, dilution in liquid medium
Format in all cases: cell-based
[1] = test system: Staphylococcus aureus UC 1 128 Pen-resistant
Procedure: (§1) The method used was a dilution of a liquid medium where a series of tubes received the same quantity of a sterile nutritive media and increasing doses of the test compounds were placed therein. Then each tube was seeded with a bacterial strain and was incubated for 24 to 48 hours at 37° C. in an oven. The increasing inhibition was determined by transillulumination to determine the minimum inhibiting concentration (MIC in μg/ml) and the results are reported in the following Tables.

[2] = test system: Bacillus subtilis ATCC 6 633
Procedure: as §1

[3] = test system: Escherichia Coli sensitive Tetracycline ATCC 9 637
Procedure: as §1

[4] = test system: Staphylococcus aureus exp.n°54 146
Procedure: as §1

[5] = test system: Klebsiella pneumoniae 2 536 Resistant Gentamycine
Procedure: as §1

[6] = test system: Proteus mirabilis (indol-) A 235
Procedure: as §1

Providencia Du 48 = test system: Providencia Du 48
Procedure: as §1

[7] = test system: Serratia Resistant Gentamycine 2 532
Procedure: as §1

[8] = test system: Escherichia Coli Resistant Tetracycline ATCC 11 303
Procedure: as §1

[9] = test system: Salmonella typhimurium 420; conditions: Salmonella enterica
Procedure: as §1

[10] = test system: Streptococcus pyogenes A 561
Procedure: as §1

[11] = test system: Klebsiella pneumoniae Exp. 52 145; conditions: read-out: MIC
Procedure: as §1

[12] = test system: Streptococcus faecalis 5 432; conditions: Enterococcus faecalis, 5432, 24 h
Procedure: as §1

[13] = test system: Escherichia Coli Resistant Gentamycine, Tobramycine R 55 123 D
Procedure: as §1

[14] = test system: Staphylococcus aureus ATCC 6 538 Pen Sensitive
Procedure: as §1

[15] = test system: Escherichia Coli Exp. TO26 B6
Procedure: as §1

Enterobacter cloacae 681 = test system: Enterobacter cloacae 681
Procedure: as §1

Work on CC(=O)OCC1=C(C(=O)O)N2C(=O)C(NC(=O)/C(=N\OC(F)F)c3csc(N)n3)C2SC1 (stereo not drawn) [Example 9, Syn isomer of 3-acetoxymethyl-7-[2-(2-amino-4-thiazolyl)-2-difluoromethoxyimino-acetamido]-ceph-3-eme-4-carboxylic acid] yielded an MIC ([1]; UC1, 24 h) of 1 µg/mL (≈ 2.03 µM), an MIC ([1]; UC1, 48 h) of 2 µg/mL (≈ 4.07 µM) and an MIC ([2]; ATCC6, 24 h) of 1 µg/mL (≈ 2.03 µM). It also gave an MIC ([2]; ATCC6, 48 h) of 5 µg/mL (≈ 10.2 µM), an MIC ([3]; ATCC9, 24 h, read-out: MIC) of 0.5 µg/mL (≈ 1.02 µM) and an MIC ([3]; ATCC9, 48 h) of 1 µg/mL (≈ 2.03 µM). The MIC ([4]; 24 h) was 1 µg/mL (≈ 2.03 µM), the MIC ([4]; 48 h) was 2 µg/mL (≈ 4.07 µM) and the MIC ([5]; 24 h, read-out: MIC) was 0.5 µg/mL (≈ 1.02 µM). The MIC ([5]; 48 h, read-out: MIC) was 0.5 µg/mL (≈ 1.02 µM), the MIC ([6]; 24 h) was 0.05 µg/mL (≈ 0.102 µM) and the MIC ([6]; 48 h) was 0.05 µg/mL (≈ 0.102 µM). For the same molecule, the MIC (Providencia Du 48; DU48, 24 h) was 2 µg/mL (≈ 4.07 µM), the MIC (Providencia Du 48; DU48, 48 h) was 2 µg/mL (≈ 4.07 µM) and the MIC ([7]; 24 h, read-out: MIC) was 0.5 µg/mL (≈ 1.02 µM). The MIC ([7]; 48 h, read-out: MIC) was 0.5 µg/mL (≈ 1.02 µM), the MIC ([8]; ATCC11, 24 h) was 0.05 µg/mL (≈ 0.102 µM) and the MIC ([8]; ATCC11, 48 h) was 0.1 µg/mL (≈ 0.203 µM). The MIC ([9]; 24 h, read-out: MIC) was 0.5 µg/mL (≈ 1.02 µM), the MIC ([9]; 48 h, read-out: MIC) was 0.5 µg/mL (≈ 1.02 µM) and the MIC ([10]; A561, 24 h) was 0.05 µg/mL (≈ 0.102 µM). For the same molecule, the MIC ([10]; A561, 48 h) was 0.05 µg/mL (≈ 0.102 µM), the MIC ([11]; EXP.52145, 24 h) was 0.05 µg/mL (≈ 0.102 µM) and the MIC ([11]; EXP.52145, 48 h) was 0.05 µg/mL (≈ 0.102 µM). The MIC [12] was 5 µg/mL (≈ 10.2 µM), the MIC ([13]; 24 h, read-out: MIC) was 0.2 µg/mL (≈ 0.407 µM) and the MIC ([13]; 48 h, read-out: MIC) was 0.2 µg/mL (≈ 0.407 µM). It also gave an MIC ([14]; ATCC6, 24 h) of 1 µg/mL (≈ 2.03 µM) and an MIC ([14]; ATCC6, 48 h) of 1 µg/mL (≈ 2.03 µM).

Work on CC(=O)OCC1=C(C(=O)O)N2C(=O)C(NC(=O)/C(=N\OCCSC#N)c3csc(N)n3)C2SC1 (stereo not drawn) [Example 7, Syn isomer of 3-acetoxymethyl-7-[2-(2-amino-4-thiazolyl)-2-(2-thiocyanatoethoxyimino)-acetamido]-ceph-3-eme-4-carboxylic acid] yielded an MIC ([1]; UC1, 24 h) of 1 µg/mL (≈ 1.9 µM), an MIC ([1]; UC1, 48 h) of 1 µg/mL (≈ 1.9 µM) and an MIC ([2]; ATCC6, 24 h) of 1 µg/mL (≈ 1.9 µM). For the same molecule, the MIC ([2]; ATCC6, 48 h) was 2 µg/mL (≈ 3.8 µM), the MIC ([15]; 24 h) was 2 µg/mL (≈ 3.8 µM) and the MIC ([15]; 48 h) was 2 µg/mL (≈ 3.8 µM). The MIC ([3]; ATCC9, 24 h) was 5 µg/mL (≈ 9.5 µM), the MIC ([3]; ATCC9, 48 h) was 5 µg/mL (≈ 9.5 µM) and the MIC ([4]; 24 h) was 1 µg/mL (≈ 1.9 µM). For the same molecule, the MIC ([4]; 48 h) was 2 µg/mL (≈ 3.8 µM), the MIC ([5]; 24 h) was 5 µg/mL (≈ 9.5 µM) and the MIC ([5]; 48 h) was 5 µg/mL (≈ 9.5 µM). The MIC ([6]; 24 h) was 0.2 µg/mL (≈ 0.38 µM), the MIC ([6]; 48 h) was 0.5 µg/mL (≈ 0.95 µM) and the MIC (Providencia Du 48; DU48, 24 h, read-out: MIC) was 10 µg/mL (≈ 19 µM). It also gave an MIC (Providencia Du 48; DU48, 48 h, read-out: MIC) of 10 µg/mL (≈ 19 µM), an MIC ([7]; 24 h) of 2 µg/mL (≈ 3.8 µM) and an MIC ([7]; 48 h) of 3 µg/mL (≈ 5.7 µM). The MIC ([8]; ATCC11, 24 h) was 0.2 µg/mL (≈ 0.38 µM), the MIC ([8]; ATCC11, 48 h) was 0.2 µg/mL (≈ 0.38 µM) and the MIC ([9]; 24 h) was 1 µg/mL (≈ 1.9 µM). It also gave an MIC ([9]; 48 h) of 3 µg/mL (≈ 5.7 µM), an MIC ([10]; A561, 24 h) of 0.02 µg/mL (≈ 0.038 µM) and an MIC ([10]; A561, 48 h) of 0.02 µg/mL (≈ 0.038 µM). It also gave an MIC ([11]; EXP.52145, 24 h) of 0.5 µg/mL (≈ 0.95 µM), an MIC ([11]; EXP.52145, 48 h) of 0.5 µg/mL (≈ 0.95 µM) and an MIC ([13]; 24 h) of 1 µg/mL (≈ 1.9 µM). For the same molecule, the MIC ([13]; 48 h) was 1 µg/mL (≈ 1.9 µM), the MIC ([14]; ATCC6, 24 h) was 1 µg/mL (≈ 1.9 µM) and the MIC ([14]; ATCC6, 48 h) was 1 µg/mL (≈ 1.9 µM).

Work on [N-]=[N+]=NCC1=C(C(=O)O)N2C(=O)C(NC(=O)/C(=N\OCCSC(=N)N)c3csc(N)n3)C2SC1 (stereo not drawn) [Example 5, Internal salt of syn isomer of 3-azidomethyl-7-[2-(2-amino-4-thiazolyl)-2-(2-aminoiminomethylthioethoxyimino)-acetamido]-ceph-3-eme-4-carboxylic acid] yielded an MIC ([1]; UC1, 24 h, read-out: MIC) of 1 µg/mL, an MIC ([1]; UC1, 48 h, read-out: MIC) of 2 µg/mL and an MIC ([2]; ATCC6, 24 h, read-out: MIC) of 2 µg/mL. For the same molecule, the MIC ([2]; ATCC6, 48 h) was 3 µg/mL, the MIC ([15]; 24 h) was 0.5 µg/mL and the MIC ([15]; 48 h) was 0.5 µg/mL. The MIC (Enterobacter cloacae 681; Enterobacter cloacae, 681, 24 h) was 3 µg/mL, the MIC (Enterobacter cloacae 681; Enterobacter cloacae, 681, 48 h) was 3 µg/mL and the MIC ([3]; ATCC9, 24 h, read-out: MIC) was 2 µg/mL. The MIC ([3]; ATCC9, 48 h, read-out: MIC) was 2 µg/mL, the MIC ([4]; 24 h, read-out: MIC) was 1 µg/mL and the MIC ([4]; 48 h, read-out: MIC) was 2 µg/mL. It also gave an MIC ([5]; 24 h, read-out: MIC) of 2 µg/mL, an MIC ([5]; 48 h) of 3 µg/mL and an MIC ([6]; 24 h) of 0.2 µg/mL. It also gave an MIC ([6]; 48 h) of 0.2 µg/mL, an MIC (Providencia Du 48; DU48, 24 h, read-out: MIC) of 10 µg/mL and an MIC (Providencia Du 48; DU48, 48 h, read-out: MIC) of 10 µg/mL. It also gave an MIC ([7]; 24 h, read-out: MIC) of 1 µg/mL, an MIC ([7]; 48 h, read-out: MIC) of 1 µg/mL and an MIC ([8]; ATCC11, 24 h) of 0.2 µg/mL. The MIC ([8]; ATCC11, 48 h) was 0.2 µg/mL, the MIC ([9]; 24 h, read-out: MIC) was 1 µg/mL and the MIC ([9]; 48 h, read-out: MIC) was 1 µg/mL. For the same molecule, the MIC ([10]; A561, 24 h) was < 0.02 µg/mL, the MIC ([10]; A561, 48 h) was 0.05 µg/mL and the MIC ([11]; EXP.52145, 24 h) was 1 µg/mL. For the same molecule, the MIC ([11]; EXP.52145, 48 h) was 1 µg/mL, the MIC ([13]; 24 h, read-out: MIC) was 1 µg/mL and the MIC ([13]; 48 h, read-out: MIC) was 1 µg/mL. The MIC ([14]; ATCC6, 24 h, read-out: MIC) was 1 µg/mL and the MIC ([14]; ATCC6, 48 h, read-out: MIC) was 1 µg/mL.
